≈ marks a conversion by molar mass, not a printed value. Read-outs that look alike come from different tables or passages of the source.
Assays:
[1] = Equilibrium solubility of itraconazole in FaSSIF; assay type: physicochemical; conditions: thermodynamic from solid; FaSSIF pH 6.5, 37° C., equilibration up to one week
[2] = Oral pharmacokinetics in dogs; conditions: for systemic exposure after oral dosing (HPLC-UV): dogs, oral 20 mg, 4 dogs
Protocol: Details of the dog's experiments were as follows: Marshall Beagle dogs (1.5-3 years of age, 7.1-10.0 kg, male) were housed according to Belgian laws and European regulations for animal experiments, and with free access to water and food. The comparative bioavailability study was performed according to a cross-over design (n=5). After administration of the capsules, 10 mL of water was given to facilitate swallowing. The evaluation of the formulation containing pure crystalline itraconazole was performed with 4 dogs. Blood samples (2.5 mL) were collected from the vena jugularis before dosing and at 0.25, 0.5, 1, 2, 3, 4, 6, 8 hours respectively after dosing. Immediately after blood collection, plasma was harvested by centrifugation at 2,500 g for 10 minutes. Plasma was then transferred to a fresh tube and frozen at −20° C. prior to analysis.
The mobile phase consisted of a methanol/25 mM sodium acetate mixture (78/22 by volume) at pH 3.3.
The maximal plasma concentrations (Cmax) and the time (Tmax) required to reach Cmax were determined from the individual time versus concentration profiles. Systemic exposure was determined by calculating AUC0-24h (rabbits) and AUC0-8h (dogs) using the linear trapezoidal rule. Pharmacokinetic parameters between the three formulations tested were statistically compared with the non-parametric Wilcoxon signed-rank test. The level of significance was set at p<0.03 for comparing two out of three groups.

[3] = Oral pharmacokinetics in rabbits; assay type: in vivo, New Zealand White rabbits; conditions: for Tmax: oral
Protocol: Prior to oral drug administration, the rabbits (n=5) were fasted overnight (>12 hours). After receiving the oral dose, 3 mL of water was administered to facilitate swallowing. After 4 hours, the rabbits had free access to food and water. A wash out period of seven days was allowed between subsequent dose administrations. […] Plasma was then transferred to a fresh Eppendorf tube and frozen at −20° C. prior to analysis.

[4] = system: Caco-2 cell monolayer; experiment: Caco-2 cell monolayer transport; assay type: in vitro ADME
Protocol: As receiver medium for Caco-2 transport experiments, 0.2 wt.-% TPGS (D-α-tocopherol polyethylene glycol 1000 succinate, commercially available from Eastman, Anglesey, England) in transport medium (hereinafter referred to as TM) [HBSS Hanks' Balanced Salt Solution supplemented with glucose to obtain a final concentration of 25 mM, commercially available from Sigma-Aldrich, Steinheim, Germany and Hepes-buffer (10 mM, pH 7.4, N-2-hydroxyethylpiperazine-N′-2-ethanesulfonic acid, commercially available from Lonza, Verviers, Belgium)] was used. To maintain sink conditions, TPGS was included in the medium added to the basolateral side of the Caco-2 cell monolayer.
Caco-2 cells were purchased from Cambrex Biosciences, Walkersville, Md., United States of America. Caco-2 cells were grown in 75 cm^2 culture flasks at 37° C. in an atmosphere of 5% CO2 and 90% relative humidity. Cells were passaged every 3-4 days (at 70-80% confluence) at a split ratio of 1 to 7. Cells were negative for Mycoplasma infection.
For transport experiments, Caco-2 cells were plated at a density of 88,500 cells/insert on Costar® Transwell membrane inserts (3 μm pore diameter, 12 mm diameter; commercially available from Corning Inc., New York). Confluence was reached within 3-4 days after seeding and the monolayers were used for the experiments 18-19 days post-seeding. Cell passages between 50 and 85 were used in the experiments. Transepithelial Electrical Resistance (hereinafter referred as TEER) values were measured with an EndOhm Voltohmmeter (commercially available from WPI, Aston, England). Only monolayers with initial TEER values higher than 200 Ω·cm^2 were used. All volumes amounted to 0.5 mL at the apical side of the monolayer and 1.5 mL at the basolateral side. After rinsing the monolayers 3 times with TM, a pre-incubation step (30 minutes) with TM (control) was performed.
[…] The samples were diluted with methanol (1:1 volume ratio) and itraconazole concentration was determined by HPLC. TEER values were measured again at the end of the experiment and were higher than 95% of the initial value.

[5] = male, Wistar, rat, in vivo
[6] = background values, cited from earlier work
[7] = J. Voorspoels et al., The Veterinary Record (October 1999); cited from earlier work

Row | SMILES | solubility thermodynamic [1] [µM] | systemic exposure after oral dosing (HPLC-UV) ([2]; listed as crystalline itraconazole) | systemic exposure after oral dosing (HPLC-UV) ([2]; listed as pure crystalline itraconazole) | AUC0-8 h itraconazole ([2]; male, Marshall Beagle, dog, in vivo, po, 20 mg) [µM·h] | Tmax ([3]; female, New Zealand White, rabbit, plasma, 8 mg) [h] | Tmax ([3]; female, New Zealand White, rabbit, plasma, 8.4 mg) [h] | AUC(0-t) ([3]; female, New Zealand White, rabbit, plasma, po, 8 mg, single oral capsule dose about 8 mg, n=5, read-out: AUC0-24 h itraconazole) [µM·h] | AUC0-24 h itraconazole ([3]; single oral capsule dose about 8 mg, n=5, listed as crystalline itraconazole) [µM·h] | total transport of itraconazole after 90 minutes ([4]; donor: 10 μM supersaturated condition in FaSSIF (solvent shift)) [µg] | total transport of itraconazole after 90 minutes ([4]; donor: 75 μM supersaturated condition in FaSSIF (solvent shift)) [µg] | total transport of itraconazole after 90 minutes ([4]; donor: saturated itraconazole solution in FaSSIF) [µg] | Total transport after 60 minutes [5] [nmol/cm] | Total transport after 60 minutes ([5]; 75 μM) [nmol/cm] | water-solubility [6] | oral bioavailability [7] | water-solubility ([6]; listed as Florfenicol)
1 | CCC(C)n1ncn(-c2ccc(N3CCN(c4ccc(OCC5COC(Cn6cncn6)(c6ccc(Cl)cc6Cl)O5)cc4)CC3)cc2)c1=O (centres unmarked) [itraconazole] | 0.4 (≈ 0.282 µg/mL) | no systemic itraconazole could be detected | no systemic concentrations of itraconazole and its main metabolite hydroxy-itraconazole could be observed | 0 ± 0 | 9.8 | 10 | 0.521 | 0.52 | 1.2 | 2.2 | 0.09 | 0.03 | 0.50 | – | – | –
2 | CC(C)(C)c1ccc(C(O)CCCN2CCC(C(O)(c3ccccc3)c3ccccc3)CC2)cc1 (centres unmarked) [terfenadine] | – | – | – | – | – | – | – | – | – | – | – | – | – | less than 0.01 mg/mL | – | –
3 | CS(=O)(=O)c1ccc([C@@H](O)[C@@H](CF)NC(=O)C(Cl)Cl)cc1 [florfenicol, D-(threo)-1-p-methylsulfonyl phenyl-2-dichloroacetamido-3-fluoro-1-propanol] | – | – | – | – | – | – | – | – | – | – | – | – | – | 1300 µg/mL | good oral bioavailability | about 1.3 mg/mL

Reference: patent US8258137B2, “Process for release of biologically active species from mesoporous oxide systems” (Katholieke Universiteit Leuven, priority 2008, dated 2012)
